According to patent US20110124888A1, “STYRYLBENZOFURAN DERIVATIVES AS INHIBITORS FOR BETA-AMYLOID FIBRIL FORMATION AND PREPARATION METHOD THEREOF” (Korea Institute of Science and Technology, priority 2008, published 2011):
Read-outs that look alike come from different tables or passages of the source.

Key:
beta-amyloid 42 (Aβ42) = biological target: T1, beta-amyloid 42 (Aβ42) (Homo sapiens, UniProt P05067); test: Inhibitory effect on the formation of beta-amyloid fibrils in vitro (ThT fluorescence assay); type: biochemical; conditions: for IC50: In vitro ThT analysis (Aβ42: 25 μM); for % inhibition against the beta-amyloid 42 formation compared with curcumin: Tables 1 to 6, relative to curcumin; for inhibition at 10 µM: 10 μM compound, Aβ42 25 μM, read-out: % Inhibition (10 μM)
T1 construct: Beta-amyloid 42 (Aβ42) was dissolved in dimethylsulfoxide (DMSO)
T1 sequence (P05067 672-713 limits assumed): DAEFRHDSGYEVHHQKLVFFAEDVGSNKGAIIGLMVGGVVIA
Protocol: In order to investigate the inhibitory effect on the formation of beta-amyloid fibrils, the inventive compounds were examined as follows:
Beta-amyloid 42 (Aβ42) was dissolved in dimethylsulfoxide (DMSO) to form a […] Aβ42 stock solution. In addition, ThT (thioflavin T) was dissolved in distilled water to a concentration of 1 mM and subsequently diluted with 50 mM glycin buffer (pH 8.5) to yield a 5 μM ThT stock solution.
45 μL of PBS (phosphate buffer saline, pH 7.4) was added to each of a 96 well fluorescence microplate (white, F-bottom). 5 μL of the 250 μM Aβ42 stock solution was added to each well. The final concentration of each compound obtained in Examples was in a range of 10 to 0.001 μM by adding 2 μL of a solution, which is prepared by dissolving the subject compounds obtained in Examples in DMSO, to each well. At this time, the final concentration of Aβ42 in each well was 25 μM. The plate was then incubated at room temperature for 1 hr, and 150 μL of the 5 μM ThT stock solution was added to each well.
The fluorescence intensity of each well was determined with the multi label fluorescence counter (LS-55 Luminescence spectrometer, Perkin Elmer) at an excitation wavelength of 450 nm (excitation slit width: 10 nm) and an emission wavelength of 482 nm (emission slit width: 10 nm), while adjusting counting time to 1 second. The control group was prepared by adding PBS solution, Aβ42 and DMSO, without adding the inventive compound. % Inhibition on the formation of beta-amyloid fibrils was calculated in accordance with the following equation and IC5O was calculated by using GraphPad Prism version 4.03 Program.
% Inhibition=[1−(C−D)/(A−B)]×100 Equation 1%
A (control group): fluorescence intensity in a group treated with PBS solution, Aβ42, and DMSO
B (blank): fluorescence intensity in a group treated with PBS solution and DMSO
C (experimental group): fluorescence intensity in a group treated with PBS solution, Aβ42, DMSO, and the inventive compound
D (compensation value to the experimental group): fluorescence intensity in a group treated with PBS solution, DMSO, and the inventive compound

[1] = system: transgenic double tg mice (APPswe, PSEN1 dE9); test: In vivo fear conditioning test in transgenic mice; conditions: 5 to 12 months of age, based on the freezing (%) of Tg vehicle group
Protocol: The tails of 3-week old mice born from Male B6C3-Tg (APPswe, PSEN1 dE9, Jackson Laboratory Co., Maine, A) and female B6C3F1 (central Lab. Animal Inc., Korea) were cut in lengths of about 0.5 cm (tail biopsy). The genomic DNAs were extracted from the tail samples and subjected to a genotype analysis to screen transgenic double tg mice.
From 5 months to 12 months after the birth, the mice were administered orally with the compound of Example 9, in an amount of 30 mg/kg or 100 mg/kg every day. As a comparative compound, tramiprosate (Aisen, P. S. et. al., Curr. Alzheimer Res. 2007, 4, 473) was used, which binds to beta-amyloid protein to inhibit the deposition and cytotoxicity to the protein. The compounds were administrated.
3) Fear Conditioning Test
At the First day of training, the mice were placed in a conditioning box and adjusted for 2 min. The fear conditioning was performed with a conditional stimulus (CS) of 75 dB for 20 sec, together with an electrical stimulus (unconditional stimulus (US)) of 0.5 mA for final 2 sec in the conditional stimulus period. After 1 min, the animals were transferred to a cage. After 24 hrs, the retention test was performed. The animals were placed in the same conditioning box as used above and observed for 5 min. The freezing response was measured without CS and US. The freezing response is defined in the state of the animals keeping still except for breathing.

[2] = system: congo red-positive beta-amyloid plagues; test: Immunohistochemistry: congo red-positive beta-amyloid plaque count in hippocampus and cortex of transgenic mice; type: in vivo; conditions: vs Tg group
Protocol: The transgenic mice were screened and drug was administered thereto as described in 1) and 2) of Experimental Example 4. The brain was separated from the transgenic mouse and fixed in 10% neutral formalin solution. A region of the brain including the hippocampus and the cortex were subjected to removal, washing, dehydration and paraffin infiltration to obtain paraffin block including the brain tissue. The paraffin block was subjected to thin section in thickness of 8 μm to obtain the sections of all regions of hippocampus. Among them, 10 sections were elected at regular intervals. They were deparaffinized, hydrated, immersed in Mayer's hematoxylin for 1 min and rinsed with tap water. The rinsed tissue was reacted in an alkaline sodium chloride solution for 20 min, after then was reacted in an alkaline congo red solution for 20 min. The resulting tissue was washed with 100% ethyl alcohol, cleared with xylene and mounted using a synthetic mounting medium. In the hippocampus and cortex regions of the tissue preparations strained with congo red, congo red-positive beta-amyloid plagues were counted.

beta-amyloid 42 = beta-amyloid 42 (Homo sapiens, UniProt P05067); test: Biochemical test: content of beta-amyloid 42 in hippocampus tissue of transgenic mice; type: in vivo; conditions: hippocampus tissue, based on the content of beta amyloid 42 in the Tg group
beta-amyloid 42, sequence (P05067 672-713 limits assumed): as above

CN(C)c1ccc(C=Cc2cc3cc(O)ccc3o2)cc1 [Compound 3, 5-Hydroxy-2-(4-dimethylaminostyryl)benzofuran]
IC50 (beta-amyloid 42 (Aβ42); experiment of Table 1): 163 nM | % inhibition against the beta-amyloid 42 formation compared with curcumin (beta-amyloid 42 (Aβ42)): superior % inhibition | melting point: 177 to 178 °C

COc1ccc2oc(C=Cc3ccc(N(C)C)c(OC)c3)cc2c1 [Compound 22, 5-methoxy-2-(3-methoxy-4-dimethylaminostyryl)benzofuran]
IC50 (beta-amyloid 42 (Aβ42); experiment of Table 1): 156 nM | % inhibition against the beta-amyloid 42 formation compared with curcumin (beta-amyloid 42 (Aβ42)): superior % inhibition | melting point: 226.5 to 227.5 °C

Cc1ccc2oc(C=Cc3ccc(N(C)C)cc3)cc2c1 [Compound 4, 5-methyl-2-(4-dimethylaminostyryl)benzofuran]
IC50 (beta-amyloid 42 (Aβ42); experiment of Table 1): 128 nM | % inhibition against the beta-amyloid 42 formation compared with curcumin (beta-amyloid 42 (Aβ42)): superior % inhibition | melting point: 188 to 189 °C

NCCCS(=O)(=O)O [Tramiprosate, tramiprosate, reference compound]
Increase rate (fold) of freezing ([1]; 30 mg/kg orally every day): 2.3 fold | Increase rate (fold) of freezing ([1]; 100 mg/kg orally every day): 1.8 fold | Reduction rate (%) of beta-amyloid plaques, cortex ([2]; 30 mg/kg): 32% | Reduction rate (%) of beta-amyloid plaques, hippocampus ([2]; 30 mg/kg): 7% | Total reduction rate (%) of beta-amyloid plaques ([2]; 30 mg/kg): 29% | Reduction rate (%) of beta-amyloid plaques, cortex ([2]; 100 mg/kg): 12% | Reduction rate (%) of beta-amyloid plaques, hippocampus ([2]; 100 mg/kg): 7% | Total reduction rate (%) of beta-amyloid plaques ([2]; 100 mg/kg): 11% | Reduction rate (%) of beta amyloid 42 content (beta-amyloid 42; 30 mg/kg): 8% | Reduction rate (%) of beta amyloid 42 content (beta-amyloid 42; 100 mg/kg): 16%

CCN(CC)c1ccc(C=Cc2cc3cc(O)ccc3o2)cc1 [Compound 56, 5-hydroxy-2-(4-diethylaminostyryl)benzofuran]
inhibition at 10 µM (beta-amyloid 42 (Aβ42); experiment of Table 2): 81.6% | IC50 (beta-amyloid 42 (Aβ42); experiment of Table 2): 1300 nM | % inhibition against the beta-amyloid 42 formation compared with curcumin (beta-amyloid 42 (Aβ42)): superior % inhibition

Cc1ccc2cc(C=Cc3ccc(N(C)C)cc3)oc2c1 [Compound 11, 6-methyl-2-(4-dimethylaminostyryl)benzofuran]
IC50 (beta-amyloid 42 (Aβ42); experiment of Table 1): 3440 nM

CCN(CC)c1ccc(C=Cc2cc3cc(OC)c(OC)cc3o2)cc1 [Compound 52, 5,6-dimethoxy-2-(4-diethylaminostyryl)benzofuran]
inhibition at 10 µM (beta-amyloid 42 (Aβ42); experiment of Table 5): 42.3%

CCN(CC)c1ccc(C=Cc2cc3ccccc3o2)cc1 [Compound 26, 2-(4-diethylaminostyryl)benzofuran]
inhibition at 10 µM (beta-amyloid 42 (Aβ42); experiment of Table 3): 4.54%

CCN(CC)c1ccc(C=Cc2cc3cc(I)ccc3o2)cc1 [Compound 47, 5-iodo-2-(4-diethylaminostyryl)benzofuran]
inhibition at 10 µM (beta-amyloid 42 (Aβ42); experiment of Table 5): 63.3% | IC50 (beta-amyloid 42 (Aβ42); experiment of Table 5): 1050 nM | % inhibition against the beta-amyloid 42 formation compared with curcumin (beta-amyloid 42 (Aβ42)): superior % inhibition

CNc1ccc(C=Cc2cc3cc(I)ccc3o2)cc1 [Compound 46, 5-iodo-2-(4-methylaminostyryl)benzofuran]
inhibition at 10 µM (beta-amyloid 42 (Aβ42); experiment of Table 6): 61% | IC50 (beta-amyloid 42 (Aβ42); experiment of Table 6): 1770 nM | % inhibition against the beta-amyloid 42 formation compared with curcumin (beta-amyloid 42 (Aβ42)): superior % inhibition

COc1ccc2oc(C=Cc3ccc(N(C)C)cc3)cc2c1 [Compound 2, 5-Methoxy-2-(4-dimethylaminostyryl)benzofuran]
IC50 (beta-amyloid 42 (Aβ42); experiment of Table 1): 810 nM
